Reference: US8193373B2, “Therapeutic compounds” (Allergan, Inc., priority 2006, dated 2012)

Columns and labels:
EP2 receptor [1] = biological target: T1, EP2 receptor (Homo sapiens, UniProt P43116); assay: cAMP assay at the EP2 receptor (assays described in WO 2005/044501); format: cell-based
Source text: (§1) The compound above has the following activity at the EP2 receptor according to the assays described in WO 2005/044501.

EP2 receptor [2] = biological target: T1, EP2 receptor; assay: Binding at the EP2 receptor (assays described in WO 2005/044501)
Source text: as §1

T1 sequence (P43116 whole entry): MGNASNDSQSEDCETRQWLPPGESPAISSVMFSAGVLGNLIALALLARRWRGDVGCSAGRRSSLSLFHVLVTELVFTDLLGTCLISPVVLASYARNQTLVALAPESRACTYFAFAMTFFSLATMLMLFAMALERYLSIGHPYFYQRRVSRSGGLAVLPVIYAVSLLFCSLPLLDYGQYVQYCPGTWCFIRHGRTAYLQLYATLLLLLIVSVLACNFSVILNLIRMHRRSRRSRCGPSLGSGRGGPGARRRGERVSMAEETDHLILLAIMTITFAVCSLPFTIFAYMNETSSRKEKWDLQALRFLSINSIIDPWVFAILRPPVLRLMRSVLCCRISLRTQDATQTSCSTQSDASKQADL

EC50 (EP2 receptor [1]): 0.003 µM | Ki (EP2 receptor [2]): 0.116 µM
SMILES: N#C[C@@H]1C[C@@H](O)[C@H](/C=C/CC(O)C2(Cc3ccc(Cl)s3)CCC2)[C@H]1C/C=C\CCCC(=O)O (stereo partly drawn) [(Z)-7-((1S,2R,3R,5R)-2-((E)-4-(1-((5-chlorothiophen-2-yl)methyl)cyclobutyl)-4-hydroxybut-1-enyl)-5-cyano-3-hydroxycyclopentyl)hept-5-enoic acid]
